# Experimental data: US20090082470A1, “STAT3 INHIBITING COMPOSITIONS AND METHODS” (priority 2007, published 2009)
# pIC50: −log10 of the molar value.
# Assays:
# [1] = system: STAT3; experiment: Electrophoretic mobility shift assay, STAT3 DNA binding; format: biochemical; conditions: 30 μM, 30 min, MDA-MB-435s cell nuclear extract
# From the text: (§1) The reaction mixtures were resolved on 8% polyacylamide gel and visualized with autoradiography.
# [2] = system: STAT3; experiment: STAT3-dependent luciferase reporter (pLucTKS3) in Caov-3 cells; format: cell-based; conditions: 20 μM, 48h
# From the text: (§2) To screen the potential inhibitors that inhibit STAT3 's biological activity, we established Caov-3 cancer cell line that constitutively expresses active STAT3 with a stably integrated STAT3-dependent luciferase reporter construct, pLucTKS3. This construct contains multimerized STAT3 binding sites and its activation specifically depends on STAT3. We examined the effect of eight theoretical STAT3 inhibitors to inhibit STAT3-mediated production of luciferase.
# (§3) According to embodiments illustrated by FIG. 3B, the clones stably transfected with pLucTKS3 STAT3-dependent luciferase reporter or SV40 luciferase reporter were treated with 20 μM of the STAT3 inhibitor for 48h and luciferase activity was measured.
# [3] = system: LNCaP prostate cancer cell line; experiment: Anti-proliferative activity, MTS assay, LNCaP; format: cell-based; conditions: Homo sapiens, MTS assay, 2,000 cells/well, means of 2 experiments in triplicate
# From the text: (§4) MCF-7 breast cancer cells, a cell line with no constitutive activation of STAT3, were used as negative control. […] In addition, the anti-proliferative activities are directly proportional to the level of constitutively active STAT3 expression (Table 1).
# [4] = system: MCF-7 and MDA-MB-453 cancer cell lines and human skin fibroblasts (HSF); experiment: Apoptosis by FACS, cells lacking constitutively active STAT3; format: cell-based; conditions: 48 h, lack constitutively active STAT3
# Experimental: (§5) According to embodiments of experimental data shown in FIG. 6A, the phosphorylation of STAT3 (Tyr705) in different cell lines: lane 1 with HSF, lane 2 with MCF-7, land 3 with MDA-MB-453, lane 4 with MDA-MB-231, lane 5 with MDA-MB-435s, and lane 6 with MDA-MB-468. According to embodiments shown in FIG. 6B, cell lines were treated with STAT3 inhibitor at concentrations as indicated for 48 h, and apoptotic cells were detected with FACS.
# [5] = biological target: T1, STAT1 (Homo sapiens, UniProt P42224); experiment: Electrophoretic mobility shift assay, STAT1 DNA binding; format: biochemical; conditions: 30 μM, MDA-MB-435s cell nuclear extract
# T1 construct: endogenous in cells; host or cells: MDA-MB-435s nuclear extract
# T1 sequence (P42224 1-750): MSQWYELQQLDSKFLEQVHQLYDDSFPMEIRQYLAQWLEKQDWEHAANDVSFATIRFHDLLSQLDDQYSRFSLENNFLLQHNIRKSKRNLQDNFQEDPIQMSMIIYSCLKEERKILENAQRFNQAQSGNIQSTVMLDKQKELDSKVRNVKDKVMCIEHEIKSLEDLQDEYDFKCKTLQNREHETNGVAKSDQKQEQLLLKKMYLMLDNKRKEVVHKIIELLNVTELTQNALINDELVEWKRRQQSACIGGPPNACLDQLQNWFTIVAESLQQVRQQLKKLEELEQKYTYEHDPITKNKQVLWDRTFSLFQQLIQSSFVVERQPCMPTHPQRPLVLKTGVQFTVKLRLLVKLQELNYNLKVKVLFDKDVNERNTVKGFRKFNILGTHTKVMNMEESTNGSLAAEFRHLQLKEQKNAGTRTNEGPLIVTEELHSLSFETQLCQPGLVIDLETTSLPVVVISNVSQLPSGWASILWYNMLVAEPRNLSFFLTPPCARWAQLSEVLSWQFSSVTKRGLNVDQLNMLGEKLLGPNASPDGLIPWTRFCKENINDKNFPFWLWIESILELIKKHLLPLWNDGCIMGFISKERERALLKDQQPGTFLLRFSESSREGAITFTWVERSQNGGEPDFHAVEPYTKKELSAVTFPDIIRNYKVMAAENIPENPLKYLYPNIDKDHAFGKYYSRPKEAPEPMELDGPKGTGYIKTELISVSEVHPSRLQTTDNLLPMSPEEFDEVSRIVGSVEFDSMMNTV
# From the text: as §1
# [6] = system: STAT5; experiment: Electrophoretic mobility shift assay, STAT5 DNA binding; format: biochemical; conditions: 30 μM, MDA-MB-435s cell nuclear extract
# From the text: as §1
# [7] = biological target: T2, Src (Homo sapiens, UniProt P12931); experiment: Phosphorylation of Src; format: cell-based
# T2 construct: endogenous in cells
# T2 sequence (P12931 whole entry): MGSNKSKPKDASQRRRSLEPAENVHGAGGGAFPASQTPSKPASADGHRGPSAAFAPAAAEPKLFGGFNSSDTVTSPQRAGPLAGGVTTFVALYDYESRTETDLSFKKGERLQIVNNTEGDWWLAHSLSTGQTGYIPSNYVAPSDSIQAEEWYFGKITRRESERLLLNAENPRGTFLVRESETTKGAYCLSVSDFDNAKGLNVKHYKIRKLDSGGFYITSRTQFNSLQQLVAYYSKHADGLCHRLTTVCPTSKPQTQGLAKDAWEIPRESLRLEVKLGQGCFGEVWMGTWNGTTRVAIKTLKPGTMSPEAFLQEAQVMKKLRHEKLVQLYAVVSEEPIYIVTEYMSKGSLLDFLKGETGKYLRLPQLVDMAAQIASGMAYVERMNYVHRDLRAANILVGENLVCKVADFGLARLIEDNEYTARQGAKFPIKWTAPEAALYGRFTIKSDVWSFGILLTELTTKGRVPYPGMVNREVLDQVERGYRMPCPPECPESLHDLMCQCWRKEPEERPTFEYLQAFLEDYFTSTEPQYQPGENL
# [8] = system: AKT; experiment: Phosphorylation of AKT; format: cell-based
# [9] = system: SV40 promoter; experiment: SV40 luciferase reporter (STAT3-independent); format: cell-based; conditions: 20 μM, 48h
# From the text: as §2, §3
# [10] = system: PC3 prostate cancer cell line; experiment: Anti-proliferative activity, MTS assay, PC3; format: cell-based; conditions: MTS assay, 2,000 cells/well, means of 2 experiments in triplicate
# From the text: as §4
# [11] = biological target: T3, JAK2 (Homo sapiens, UniProt O60674); experiment: Phosphorylation of JAK2; format: cell-based
# T3 construct: endogenous in cells
# T3 sequence (O60674 whole entry): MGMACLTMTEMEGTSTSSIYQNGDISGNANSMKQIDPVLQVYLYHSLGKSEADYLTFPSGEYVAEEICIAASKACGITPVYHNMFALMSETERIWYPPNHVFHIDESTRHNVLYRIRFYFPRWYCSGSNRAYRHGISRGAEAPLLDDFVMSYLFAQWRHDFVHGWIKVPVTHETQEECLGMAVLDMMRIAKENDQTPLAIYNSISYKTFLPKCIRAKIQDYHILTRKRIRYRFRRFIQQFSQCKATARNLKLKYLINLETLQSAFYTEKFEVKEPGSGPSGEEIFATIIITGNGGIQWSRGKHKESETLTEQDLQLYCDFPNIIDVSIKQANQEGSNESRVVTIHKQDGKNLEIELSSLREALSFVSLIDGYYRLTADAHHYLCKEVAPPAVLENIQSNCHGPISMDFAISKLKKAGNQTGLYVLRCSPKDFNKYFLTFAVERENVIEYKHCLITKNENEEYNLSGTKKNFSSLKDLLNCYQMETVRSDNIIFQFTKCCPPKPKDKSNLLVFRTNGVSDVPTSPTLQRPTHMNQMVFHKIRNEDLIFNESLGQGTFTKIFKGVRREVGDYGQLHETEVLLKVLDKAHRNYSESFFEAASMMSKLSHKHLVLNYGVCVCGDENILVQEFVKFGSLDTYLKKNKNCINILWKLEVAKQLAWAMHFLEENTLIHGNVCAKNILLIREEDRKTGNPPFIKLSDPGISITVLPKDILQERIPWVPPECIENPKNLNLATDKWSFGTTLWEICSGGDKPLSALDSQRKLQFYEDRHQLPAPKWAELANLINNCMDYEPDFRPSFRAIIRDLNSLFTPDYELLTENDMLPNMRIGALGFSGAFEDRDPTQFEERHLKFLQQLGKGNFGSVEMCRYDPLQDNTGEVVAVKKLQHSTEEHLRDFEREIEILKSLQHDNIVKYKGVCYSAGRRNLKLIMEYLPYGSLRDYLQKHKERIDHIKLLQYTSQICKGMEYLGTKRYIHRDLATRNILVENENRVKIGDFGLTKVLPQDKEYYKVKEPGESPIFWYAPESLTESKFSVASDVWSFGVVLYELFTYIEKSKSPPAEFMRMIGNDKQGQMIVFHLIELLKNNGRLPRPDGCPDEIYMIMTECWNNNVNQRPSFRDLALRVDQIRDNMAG
# [12] = system: cyclin D1 and Bcl-XL; experiment: Immunoblot of STAT3-regulated genes; format: cell-based; conditions: 20 μM and 30 μM
# [13] = system: MCF-7 breast cancer cell line; experiment: Anti-proliferative activity, MTS assay, MCF-7; format: cell-based
# From the text: as §4
# [14] = system: DU 145 prostate cancer cell line; experiment: Anti-proliferative activity, MTS assay, DU 145; format: cell-based; conditions: Homo sapiens, MTS assay, 2,000 cells/well, means of 2 experiments in triplicate
# From the text: as §4
# [15] = system: ERK½; experiment: Phosphorylation of ERK½; format: cell-based
# [16] = system: MDA-MB-468, MDA-MB-435s, and MDA-MB-231 cell lines; experiment: Apoptosis by FACS, cell lines with constitutively active STAT3; format: cell-based; conditions: 48 h
# Experimental: as §5
# [17] = system: STAT3; experiment: STAT3 dimerization, co-immunoprecipitation of STAT3-FLAG and STAT3-HA; format: cell-based; conditions: MDA-MB-435s cells, 20 μM, 24h
# Experimental: MDA-MB-435s cells were co-transfected with pCMV-STAT3-FLAG and pCMV-STAT3-HA plasmid constructs and immunoblot analyses were performed with anti-FLAG, anti-HA, and anti-STAT3, the results of which are shown in FIG. 5A. The cell lysates were then subjected to immunoprecipitation with an anti-FLAG or anti-HA antibody and immunoblot analyses were performed with anti-HA or anti-FLAG, respectively, the results of which are shown in FIG. 5B.
# According to embodiments of experimental results shown in FIG. 5A, MDA-MB-435s cells were transfected with pCMV-STAT3-Flag and pCMV-STAT3-HA plasmid and the cell lysate was immunoblotted with anti-Flag, anti-HA, or anti-STAT3. According to embodiments shown in FIG. 5B, MDA-MB-435s cells were co-transfected with pCMV-STAT3-Flag and pCMV-STAT3-HA plasmids and were exposed to 20 μM of inhibitor for 24h, then cell lysate was immunoprecipitated with anti-HA or anti-Flag antibody, respectively and immunoblotted with HA, Flag, or STAT3 antibody. As shown in Lane 1 of FIG. 5B, no transfection was performed. In lane 2, untreated cells were transfected with pCMV-STAT3-Flag and pCMV-STAT3-HA plasmids.
smiles,measurement,setting,value
"C[C@@H]1CC(=O)c2c(ccc3c2C(=O)c2cccc(O)c2C3=O)C1 [STA-21, deoxytetrangomycin]",STAT3 DNA binding activity,[1],specifically blocked STAT3 DNA binding
same,"reduction in luciferase activity, pLucTKS3 transfected cells",[2],~6 fold
same,pIC50,[3],4.52
same,increase in percentage of apoptotic cells,[4],0.5-1.2 fold
same,STAT1 DNA binding,[5],did not inhibit
same,STAT5 DNA binding,[6],did not inhibit
same,phosphorylation of Src,[7],did not inhibit
same,phosphorylation of AKT,[8],did not inhibit
same,luciferase activity under control of the SV40 promoter,[9],no significant difference
same,pIC50,[10],4.73
same,phosphorylation of JAK2,[11],did not inhibit
same,expression of STAT3-regulated genes cyclin D1 and Bcl-XL,[12],inhibits the expression
same,pIC50,"[13]; Homo sapiens, MCF7, MTS assay, 2,000 cells/well, no constitutive STAT3 activation",< 4.00
same,anti-proliferative activity in MCF-7 cells (in words),[13]; cells with no constitutive STAT3 activation,did not show any antiproliferative activity
same,pIC50,[14],4.91
same,phosphorylation of ERK½,[15],did not inhibit
same,increase in percentage of apoptotic cells,[16],5-30 fold
same,ability of STAT3-FLAG and STAT3-HA to dimerize,[17],significantly reduced
